Source: patent US12077503B2, “Substituted cyclic amides and their use as herbicides” (FMC CORPORATION, priority 2015, dated 2024)

Assays:
Format in all cases: in vivo
[1] = tested on: ragweed (common ragweed, Ambrosia elatior); experiment: Test A preemergence; conditions: for Plant response rating, Ragweed: 125 g ai/ha, preemergence, 0 to 100 scale (0 no effect, 100 complete control); for Ragweed plant response rating (0 to 100 scale, 0 is no effect, 100 is complete control): Preemergence, 500 g ai/ha, visual injury approx. 10 d
Summary of the method: (§1)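 Preemergence directed soil spray on seeded pots, or postemergence application to plants 2–10 cm, one- to two-leaf. Solvent mixture non-phytotoxic, with surfactant. Scored ~10 d later, visually, 0–100 vs untreated.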

[2] = tested on: ryegrass, Italian (Italian ryegrass, Lolium multiflorum); experiment: Test A preemergence; conditions: for Plant response rating, Ryegrass, Italian: 125 g ai/ha, preemergence, 0 to 100 scale (0 no effect, 100 complete control); for Ryegrass, Italian plant response rating (0 to 100 scale, 0 is no effect, 100 is complete control): Preemergence, 500 g ai/ha, visual injury approx. 10 d
Summary of the method: as §1

Kochia (Kochia scoparia) [3] = experiment: Test A preemergence; conditions: for Plant response rating, Kochia: 125 g ai/ha, preemergence, 0 to 100 scale (0 no effect, 100 complete control); for Kochia plant response rating (0 to 100 scale, 0 is no effect, 100 is complete control): Preemergence, 500 g ai/ha, visual injury approx. 10 d
Summary of the method: as §1

[4] = tested on: giant foxtail (Setaria faberii); experiment: Test A preemergence; conditions: for Plant response rating, Foxtail, Giant: 125 g ai/ha, preemergence, 0 to 100 scale (0 no effect, 100 complete control); for Foxtail, Giant plant response rating (0 to 100 scale, 0 is no effect, 100 is complete control): Preemergence, 500 g ai/ha, visual injury approx. 10 d
Summary of the method: as §1

[5] = tested on: barnyardgrass (Echinochloa crus-galli); experiment: Test A preemergence; conditions: for Plant response rating, Barnyardgrass: 125 g ai/ha, preemergence, 0 to 100 scale (0 no effect, 100 complete control); for Barnyardgrass plant response rating (0 to 100 scale, 0 is no effect, 100 is complete control): Preemergence, 500 g ai/ha, visual injury approx. 10 d
Summary of the method: as §1

[6] = tested on: pigweed (Amaranthus retroflexus); experiment: Test A preemergence; conditions: for Plant response rating, Pigweed: 125 g ai/ha, preemergence, 0 to 100 scale (0 no effect, 100 complete control); for Pigweed plant response rating (0 to 100 scale, 0 is no effect, 100 is complete control): Preemergence, 500 g ai/ha, visual injury approx. 10 d
[7] = tested on: ducksalad (Heteranthera limosa); experiment: Test B flooded paddy test; conditions: Flood, 250 g ai/ha; 0 to 100 scale where 0 is no effect and 100 is complete control; 13 to 15 d
Summary of the method: (§2)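 Greenhouse paddy pots with 2-leaf stage plants received compound by direct addition to floodwater 3 cm deep, kept at that level. Scored visually at 13–15 d versus controls (0 no effect; 100 complete control).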

[8] = tested on: sedge, umbrella (small-flower umbrella sedge, Cyperus difformis); experiment: Test B flooded paddy test; conditions: Flood, 250 g ai/ha; 0 to 100 scale where 0 is no effect and 100 is complete control; 13 to 15 d
Summary of the method: as §2

rice (Oryra sativa) = experiment: Test B flooded paddy test; conditions: Flood, 250 g ai/ha; 0 to 100 scale where 0 is no effect and 100 is complete control; 13 to 15 d
Summary of the method: as §2

[9] = tested on: barnyardgrass (Echinochloa crus-galli); experiment: Test B flooded paddy test; conditions: Flood, 250 g ai/ha; 0 to 100 scale where 0 is no effect and 100 is complete control; 13 to 15 d
Summary of the method: as §2

[10] = tested on: ragweed (common ragweed, Ambrosia elatior); experiment: Test A postemergence; conditions: postemergence; for Ragweed plant response rating: 125 g ai/ha, visual injury rating on 0 to 100 scale (0 no effect, 100 complete control), approx. 10 d; for Plant response rating, Ragweed: 500 g ai/ha, 0 to 100 scale, 0 no effect, 100 complete control
Summary of the method: as §1

[11] = tested on: ryegrass, Italian (Italian ryegrass, Lolium multiflorum); experiment: Test A postemergence; conditions: postemergence; for Ryegrass, Italian plant response rating: 125 g ai/ha, visual injury rating on 0 to 100 scale (0 no effect, 100 complete control), approx. 10 d; for Plant response rating, Ryegrass, Italian: 500 g ai/ha, 0 to 100 scale, 0 no effect, 100 complete control
Summary of the method: as §1

[12] = tested on: Galium (catchweed bedstraw, Galium aparine); experiment: Test A postemergence; conditions: postemergence; for Galium plant response rating: 125 g ai/ha, visual injury rating on 0 to 100 scale (0 no effect, 100 complete control), approx. 10 d; for Plant response rating, Galium: 500 g ai/ha, 0 to 100 scale, 0 no effect, 100 complete control
Summary of the method: as §1

corn (Zea mays) = experiment: Test A postemergence; conditions: postemergence; for Corn plant response rating: 125 g ai/ha, visual injury rating on 0 to 100 scale (0 no effect, 100 complete control), approx. 10 d; for Plant response rating, Corn: 500 g ai/ha, 0 to 100 scale, 0 no effect, 100 complete control
Summary of the method: as §1

Kochia (Kochia scoparia) [13] = experiment: Test A postemergence; conditions: postemergence; for Kochia plant response rating: 125 g ai/ha, visual injury rating on 0 to 100 scale (0 no effect, 100 complete control), approx. 10 d; for Plant response rating, Kochia: 500 g ai/ha, 0 to 100 scale, 0 no effect, 100 complete control
Summary of the method: as §1

[14] = tested on: giant foxtail (Setaria faberii); experiment: Test A postemergence; conditions: postemergence; for Foxtail, Giant plant response rating: 125 g ai/ha, visual injury rating on 0 to 100 scale (0 no effect, 100 complete control), approx. 10 d; for Plant response rating, Foxtail, Giant: 500 g ai/ha, 0 to 100 scale, 0 no effect, 100 complete control
Summary of the method: as §1

[15] = tested on: barnyardgrass (Echinochloa crus-galli); experiment: Test A postemergence; conditions: postemergence; for Barnyardgrass plant response rating: 125 g ai/ha, visual injury rating on 0 to 100 scale (0 no effect, 100 complete control), approx. 10 d; for Plant response rating, Barnyardgrass: 500 g ai/ha, 0 to 100 scale, 0 no effect, 100 complete control
Summary of the method: as §1

[16] = tested on: wheat (Triticum aestivum); experiment: Test A postemergence; conditions: postemergence; for Wheat plant response rating: 125 g ai/ha, visual injury rating on 0 to 100 scale (0 no effect, 100 complete control), approx. 10 d; for Plant response rating, Wheat: 500 g ai/ha, 0 to 100 scale, 0 no effect, 100 complete control
Summary of the method: as §1

[17] = tested on: pigweed (Amaranthus retroflexus); experiment: Test A postemergence; conditions: postemergence; for Pigweed plant response rating: 125 g ai/ha, visual injury rating on 0 to 100 scale (0 no effect, 100 complete control), approx. 10 d; for Plant response rating, Pigweed: 500 g ai/ha, 0 to 100 scale, 0 no effect, 100 complete control
Summary of the method: as §1

[18] = tested on: blackgrass (Alopecurus myosuroides); experiment: Test A postemergence; conditions: postemergence; for Blackgrass plant response rating: 125 g ai/ha, visual injury rating on 0 to 100 scale (0 no effect, 100 complete control), approx. 10 d; for Plant response rating, Blackgrass: 500 g ai/ha, 0 to 100 scale, 0 no effect, 100 complete control
Summary of the method: as §1

COc1c(F)ccc(NC(=O)C2C(=O)N(C)CC2c2cccc(OC(F)(F)C(F)F)c2)c1F (stereo not drawn) [Compound 430]
Plant response rating, Ragweed [1]: 30
Ragweed plant response rating (0 to 100 scale, 0 is no effect, 100 is complete control) [1]: 50
Plant response rating, Ryegrass, Italian [2]: 40
Ryegrass, Italian plant response rating (0 to 100 scale, 0 is no effect, 100 is complete control) [2]: 50
Plant response rating, Kochia (Kochia (Kochia scoparia) [3]): 30
Kochia plant response rating (0 to 100 scale, 0 is no effect, 100 is complete control) (Kochia (Kochia scoparia) [3]): 70
Plant response rating, Foxtail, Giant [4]: 90
Foxtail, Giant plant response rating (0 to 100 scale, 0 is no effect, 100 is complete control) [4]: 90
Plant response rating, Barnyardgrass [5]: 80
Barnyardgrass plant response rating (0 to 100 scale, 0 is no effect, 100 is complete control) [5]: 90
Plant response rating, Pigweed [6]: 0
Pigweed plant response rating (0 to 100 scale, 0 is no effect, 100 is complete control) [6]: 50
Plant response rating, Ducksalad [7]: 100
Plant response rating, Sedge, Umbrella [8]: 0
Plant response rating, Rice (rice (Oryra sativa)): 20
Plant response rating, Barnyardgrass [9]: 65
Ragweed plant response rating [10]: 0
Plant response rating, Ragweed [10]: 30
Ryegrass, Italian plant response rating [11]: 30
Plant response rating, Ryegrass, Italian [11]: 50
Galium plant response rating [12]: 50
Plant response rating, Galium [12]: 60
Corn plant response rating (corn (Zea mays)): 50
Plant response rating, Corn (corn (Zea mays)): 70
Kochia plant response rating (Kochia (Kochia scoparia) [13]): 20
Plant response rating, Kochia (Kochia (Kochia scoparia) [13]): 50
Foxtail, Giant plant response rating [14]: 80
Plant response rating, Foxtail, Giant [14]: 80
Barnyardgrass plant response rating [15]: 80
Plant response rating, Barnyardgrass [15]: 90
Wheat plant response rating [16]: 20
Plant response rating, Wheat [16]: 50
Pigweed plant response rating [17]: 30
Plant response rating, Pigweed [17]: 50
Blackgrass plant response rating [18]: 20
Plant response rating, Blackgrass [18]: 70

CN1CC(c2ccc(Cl)cc2)C(C(=O)Nc2ccccc2F)C1=O (stereo not drawn) [Compound 433]
Plant response rating, Ragweed [1]: 70
Ragweed plant response rating (0 to 100 scale, 0 is no effect, 100 is complete control) [1]: 60
Plant response rating, Ryegrass, Italian [2]: 20
Ryegrass, Italian plant response rating (0 to 100 scale, 0 is no effect, 100 is complete control) [2]: 60
Plant response rating, Kochia (Kochia (Kochia scoparia) [3]): 70
Kochia plant response rating (0 to 100 scale, 0 is no effect, 100 is complete control) (Kochia (Kochia scoparia) [3]): 80
Plant response rating, Foxtail, Giant [4]: 90
Foxtail, Giant plant response rating (0 to 100 scale, 0 is no effect, 100 is complete control) [4]: 90
Plant response rating, Barnyardgrass [5]: 90
Barnyardgrass plant response rating (0 to 100 scale, 0 is no effect, 100 is complete control) [5]: 90
Plant response rating, Pigweed [6]: 20
Pigweed plant response rating (0 to 100 scale, 0 is no effect, 100 is complete control) [6]: 70
Plant response rating, Ducksalad [7]: 98
Plant response rating, Sedge, Umbrella [8]: 0
Plant response rating, Rice (rice (Oryra sativa)): 0
Plant response rating, Barnyardgrass [9]: 70
Ragweed plant response rating [10]: 0
Plant response rating, Ragweed [10]: 50
Ryegrass, Italian plant response rating [11]: 30
Plant response rating, Ryegrass, Italian [11]: 60
Galium plant response rating [12]: 50
Plant response rating, Galium [12]: 50
Corn plant response rating (corn (Zea mays)): 0
Plant response rating, Corn (corn (Zea mays)): 30
Kochia plant response rating (Kochia (Kochia scoparia) [13]): 40
Plant response rating, Kochia (Kochia (Kochia scoparia) [13]): 50
Foxtail, Giant plant response rating [14]: 80
Plant response rating, Foxtail, Giant [14]: 80
Barnyardgrass plant response rating [15]: 90
Plant response rating, Barnyardgrass [15]: 90
Wheat plant response rating [16]: 30
Plant response rating, Wheat [16]: 60
Pigweed plant response rating [17]: 20
Plant response rating, Pigweed [17]: 20
Blackgrass plant response rating [18]: 30
Plant response rating, Blackgrass [18]: 40
